According to patent US6579718B1, “Carbazolylvinyl dye protein stains” (Molecular Probes, Inc., priority 2000, dated 2003):

What was measured:
[1] = tested on: amino acid homo- and hetero-polymers; experiment: Dye staining of amino acid homo- and hetero-polymers copolymerized into polyacrylamide gel discs
From the text: The specificity of protein detection of the present method can be compared to that of silver, CBB, SYPRO Orange dye and SYPRO Red dye staining for a variety of synthetic poly(amino acids) copolymerized into a polyacrylamide gel matrix. To do this, homopolymers of L-arginine, asparagine, histidine, lysine, aspartate, glutamate, alanine, glycine, isoleucine, leucine, methionine, serine, threonine, tryptophan, tyrosine and proline are copolymerized into 15% T, 2.6% C polyacrylamide gels at a concentration of […]. Except when indicated, 0.1% sodium dodecyl sulfate is included in the polyacrylamide solution as well. The amino acid heteropolymers, poly(glutamate, alanine, tyrosine), poly(glutamate, tyrosine), poly(lysine, tyrosine), poly(glutamate, lysine, tyrosine), and poly(arginine, tyrosine) are copolymerized into polyacrylamide gels in an identical manner as the homopolymers. Blank gels containing no polymer are prepared for reference. The co-polymerized gels are cut into discs using the large end of a 1000 microliter pipet tip (Sorenson Bioscience, Inc., West Salt. Lake City, Utah) and stained in Falcon 48 well flat bottom tissue culture plates (Becton-Dickinson, Franklin Lakes, N.J.) on an orbital shaker operating at 50 RPM. Gel discs are quantified on a Roche Lumi-Imager system (Indianapolis, Ind.) and classified into three groups based upon staining intensity (strong, moderate, or weak staining).

[2] = tested on: proteins; experiment: Staining protein gels with dye in the running buffer (Example 30); settings: running buffer with 0.05% SDS and 1-3 μM dye
Experimental: The proteins of interest are prepared for loading on standard SDS gels, using standard methods. Dilution series of known molecular weight markers, or proteins of unknown concentration, or protein mixtures of unknown composition are used. The gels are loaded and run under standard conditions, excepting that the running buffer contains 0.05% SDS and 1-3 μM Compound 9. The stained gels are either photographed directly after electrophoresis or are destained in 7.5% acetic acid or phosphate-buffered saline for 20-50 minutes to remove background staining prior to photography. […] In addition, the migration of protein bands can be monitored through the glass plates that support the gel, during electrophoresis. Such monitoring can either be calorimetric, since the stained protein bands are visually colored, or can be via fluorescence, if the excitation source is at visible wavelengths (such as a laser or mercury-arc lamp, for example).

[3] = gel discs with 0.1% SDS, no asterisk = moderate

Structure (SMILES): CCn1c2ccccc2c2cc(/C=C/c3cc[n+](CCCCS(=O)(=O)[O-])c4ccccc34)ccc21 [Compound 9]
- Staining intensity, Arg homopolymer [1, 3]: Arg*
- Staining intensity, Arg:Tyr heteropolymer [1, 3]: Arg:Tyr*
- Staining intensity, Glu:Ala:Tyr heteropolymer [1, 3]: Glu:Ala:Tyr*
- Staining intensity, Glu:Lys:Tyr heteropolymer [1, 3]: Glu:Lys:Tyr*
- Staining intensity, Glu:Tyr heteropolymer [1, 3]: Glu:Tyr*
- Staining intensity, Gly homopolymer [1, 3]: Gly
- Staining intensity, His homopolymer [1, 3]: His*
- Staining intensity, Ile homopolymer [1, 3]: Ile
- Staining intensity, Lys homopolymer [1, 3]: Lys*
- Staining intensity, Lys:Tyr heteropolymer [1, 3]: Lys:Tyr*
- Staining intensity, Tyr homopolymer [1, 3]: Tyr*
- Change of amino acid polymer staining in phosphate-buffered saline ([1]; phosphate-buffered saline versus 7% acetic acid): not substantially reduced
- Sensitivity compared with staining gels after electrophoresis [2]: about the same
